Measured values published in PubChem BioAssay (NCI).
Values joined by “and” are separate entries in the source; they are usually repeats but may differ in a detail not shown here. Equal entries are not always repeated.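 Following 48 hours of exposure in 96-well plates, responses at five concentrations were used to interpolate endpoints linearly. Abbreviation: GI50, concentration required for 50% inhibition of growth. TGI marks complete inhibition of growth.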

Legend:
Assay in all cases: NCI anticancer screen, dose series, 48 h
HL-60(TB) leukemia = system: HL-60(TB) leukemia
TK-10 renal = system: TK-10 renal
K-562 leukemia = system: K-562 leukemia
PC-3 prostate = system: PC-3 prostate
RPMI-8226 leukemia = system: RPMI-8226 leukemia

Row | Compound | TGI (HL-60(TB) leukemia) | TGI (TK-10 renal) | TGI (K-562 leukemia) | TGI (PC-3 prostate) | TGI (RPMI-8226 leukemia) | GI50 (HL-60(TB) leukemia) | GI50 (K-562 leukemia) | GI50 (PC-3 prostate) | GI50 (RPMI-8226 leukemia)
1 | C=CCC1(O)c2ccccc2C(=O)c2c(O)ccc(O)c21 (configuration not stated) | 13 µM | 47.1 µM | > 100 µM | 35.5 µM | > 100 µM |  |  |  | 
2 | O=C1CSC2(CC(/C=C/c3ccccc3)=NN2c2cccc(S(=O)(=O)O)c2)N1c1nc2ccccc2s1 (configuration not stated) | 94.6 µM | 46.9 µM | > 100 µM | 59.3 µM | 53.7 µM |  |  |  | 
3 | C=C(C)[C@@]1(O)O[C@H]2C[C@@]3(C)OC(=CC3=O)/C(C)=C\[C@@H]3OC(=O)[C@@]1(C)[C@H]32 | > 47.2 µM | 42.1 µM | 35.4 µM | 78.4 µM | > 58.1 µM |  |  |  | 
4 | CN(C)c1nc2sc3c(c2c(=O)o1)CCCC3 | > 100 µM | > 100 µM | > 100 µM | > 100 µM | > 100 µM |  |  |  | 
5 | COC(=O)c1c2c(cc3c1CC1(Cc4ccccc4C1=O)C3)CCC2 (configuration not stated) | 53.1 µM | > 100 µM | > 100 µM | > 100 µM | 99.8 µM |  |  |  | 
6 | Nc1nc(Cl)cc(NCC2(O)CC(CO)C2)n1 (configuration not stated) | > 100 µM | > 100 µM | > 100 µM | > 100 µM | > 100 µM |  |  |  | 
7 | O=S(=O)(Oc1ccc2oc3ccccc3c2c1-c1c(OS(=O)(=O)C(F)(F)F)ccc2oc3ccccc3c12)C(F)(F)F | > 100 µM | > 100 µM | > 100 µM | > 100 µM | > 100 µM |  |  |  | 
8 | C1=C\SS/C=C\SS/C=C\SS/C=C\SS/1 | 58.1 µM | > 100 µM | 64 µM | > 100 µM | > 100 µM |  |  |  | 
9 | C1CC2=C(C1)[Se]C(=C1Sc3nsnc3S1)[Se]2 |  | > 100 µM |  | > 100 µM | > 100 µM |  |  |  | 
10 | CNC(=O)c1ccccc1-[s+]1c2ccccc2c(=O)n1C (configuration not stated) | > 100 µM | > 100 µM | > 100 µM | > 100 µM | > 100 µM |  |  |  | 
11 | OCC1OC(c2scc3c(=S)nc[nH]c23)C(O)C1O (configuration not stated) | 21.4 µM | > 100 µM | > 100 µM | > 84.9 µM | 58 µM |  |  |  | 
12 | Nc1nc2c(=O)c3ccccc3sc2s1 | > 100 µM | > 100 µM | > 100 µM | > 100 µM | > 100 µM |  |  |  | 
13 | O=C1c2ccccc2C(=O)N1n1c(Cc2ccccc2)n[nH]c1=O |  | > 100 µM | > 100 µM | > 100 µM |  |  |  |  | 
14 | c1csc(-c2ccc(-c3ccc(-c4ccc(-c5cccs5)s4)s3)s2)c1 | 53.6 µM | > 100 µM | > 100 µM |  | > 100 µM |  |  |  | 
15 | O=C(Cc1ccccc1)NCCc1ccc(O)c(O)c1 | 51.9 µM | > 100 µM | 39.8 µM | > 100 µM | > 100 µM |  |  |  | 
16 | CCOC(=O)c1cccc(NC(=O)CCl)c1 | 13.2 µM | 15 µM | 29 µM | 18.1 µM | 15.9 µM |  |  |  | 

Row | Compound | TGI (HL-60(TB) leukemia) | TGI (TK-10 renal) | TGI (K-562 leukemia) | TGI (PC-3 prostate) | TGI (RPMI-8226 leukemia) | GI50 (HL-60(TB) leukemia) | GI50 (K-562 leukemia) | GI50 (PC-3 prostate) | GI50 (RPMI-8226 leukemia)
17 | CO/C(=N\N=C\c1cc(OC)ccc1OC)c1ccncc1 | > 10 µM | > 10 µM | > 10 µM | > 10 µM | > 10 µM |  |  |  | 
18 | CCc1nn(CN2CCN(C)CC2)c(=S)n1/N=C\c1ccc(-c2ccc([N+](=O)[O-])cc2)o1 | > 100 µM | 71.3 µM | > 100 µM | > 100 µM | > 100 µM |  |  |  | 
19 | O=c1cc(CNC2CCCC2)[nH]c(=O)[nH]1 | > 100 µM | > 100 µM | > 100 µM | > 100 µM | > 100 µM |  |  |  | 
20 | CCC(C)[C@@H](NCc1ccccc1)[C@H](OCc1ccccc1)[C@@H]1COC(C)(C)O1 (some centres not stated) |  | 32.7 µM | 59.8 µM | > 100 µM | 36.1 µM |  |  |  | 
21 | c1ccc(C2=NC3(CCCCC3)N(c3nc4ccccc4s3)N2)nc1 | 80.3 µM | 52.8 µM | > 100 µM | 46.9 µM | 52.8 µM |  |  |  | 
22 | Cc1nc2c(=S)[nH]ncc2[nH]1 | > 100 µM | > 100 µM | > 100 µM | > 100 µM | > 100 µM |  |  |  | 
23 | O=C1N[C@H]2c3c(Cl)sc(Cl)c3/C(=N/O)[C@H]2O1 | 57.9 µM | > 100 µM | > 100 µM | > 100 µM | > 100 µM |  |  |  | 
24 | O=C(CP(c1ccccc1)c1ccccc1)c1cccc(C(=O)CP(c2ccccc2)c2ccccc2)c1 | 42.8 µM | > 100 µM | > 100 µM | > 100 µM | 67.4 µM |  |  |  | 
25 | O=c1[nH]c(=O)n(C2CC(O)C(CO)O2)cc1I (configuration not stated) | > 100 µM | > 100 µM | > 100 µM | > 100 µM | > 100 µM |  |  |  | 
26 | CC(C)(C)OC(=O)CN1CCNCCNCC1 |  | > 100 µM | > 100 µM | > 100 µM | > 100 µM |  |  |  | 
27 | CC1=NN(c2nc(N)nc(-c3ccccc3S(N)(=O)=O)n2)C(C)(C)C1 | 41.2 µM | > 100 µM | > 100 µM | > 100 µM | > 100 µM |  |  |  | 
28 | O=C(O)[C@H]1[C@@H](C2CCCCC2)O[C@@H](C2CCCCC2)O[C@H]1C(F)(F)F | 62.6 µM | > 100 µM | > 100 µM | 32.1 µM | 45.3 µM |  |  |  | 
29 | O=C1NC(N/N=C\C(O)C(O)C(O)CO)=N/C1=C/c1ccccc1 (configuration not stated) | > 100 µM | > 100 µM | > 100 µM | > 100 µM | > 100 µM | > 100 µM and 41.2 µM | > 100 µM and 22.7 µM | > 100 µM and 48.9 µM | > 100 µM and 33.7 µM
30 | Cc1ccc(C)n1-c1ccccc1C1SCCCS1 | > 100 µM | > 100 µM | > 100 µM | > 100 µM | > 100 µM |  |  |  | 
31 | CCOc1cc2c(cc1O)/C(=N\N)C[C@@H]1[C@@H]2CC[C@]2(C)[C@@H](O)CC[C@@H]12 | > 61.9 µM | > 68 µM | > 100 µM | > 80.1 µM | > 100 µM |  |  |  | 
